Data published in patent US11696913B2, “Prolonged ectoparasite-controlling agent for animal” (MITSUI CHEMICALS AGRO, INC., priority 2017, dated 2023).
Read-outs that look alike come from different tables or passages of the source.

Key:
[1] = system: Rhipicephalus (Boophilus) microplus; assay: In vitro injection test with Rhipicephalus (Boophilus) microplus (BOOPMI Inj); details: 168 h, laid fertile eggs after 7 days, read-out: acaricidal activity; for pest or weed control at 0.0008 mg: dose 0.8 μg/animal injected; for pest or weed control at 0.00016 mg: dose 0.16 μg/animal injected; for pest or weed control at 6.4 ng: dose 0.0064 μg/animal injected; for pest or weed control at 32 ng: dose 0.032 μg/animal injected
In short: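 Five engorged adult females each get a 1 μl abdominal injection of compound dissolved and diluted in DMSO. Kept 7 days at 28° C./85% rel. hum.; percent activity rates egg laying and egg fertility (0% all fertile, 100% none laid or infertile).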

[2] = system: Ctenocephalides felis; assay: Ctenocephalides felis in-vitro feeding test with fleas (CTECFE oral); details: 48 hours, read-out: insecticidal feeding activity; for pest or weed control at 0.16 ppm: dose 0.16 ppm in citrated cattle blood; for pest or weed control at 0.8 ppm: dose 0.8 ppm in citrated cattle blood; for pest or weed control at 4 ppm: dose 4 ppm in citrated cattle blood; for pest or weed control at 0.032 ppm: dose 0.032 ppm in citrated cattle blood
In short: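 Scored as percent fleas killed (0–100%) 48 hours after feeding began. Compound, dissolved in DMSO and diluted into citrated cattle blood, was offered via a parafilm membrane to roughly 20 adult male and female C. felis at about 37° C.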

[3] = system: Spodoptera litura; assay: Insecticidal testing against common cutworm; format: in vivo; details: foliar, 144 h, concentration 100 ppm, cabbage leaf dip, second-stage larvae, after 6 days, read-out: pesticidal rate
Excerpt: Insecticidal Testing Against Common Cutworm (Spodoptera litura)

[4] = system: Plutella xylostella; assay: Insecticidal testing against diamondback moth; format: in vivo; details: foliar, 144 h, concentration 100 ppm, cabbage leaf dip, third-stage larvae, after 6 days, read-out: pesticidal rate
Excerpt: Insecticidal Testing Against Diamondback Moth (Plutella xylostella)

[5] = system: Ctenocephalides felis; assay: Systemic treatment in-vivo test with cat flea on rats; details: intraperitoneal injection, 5 mg/kg; for inhibition in vivo at 5 mg/kg: Ctenocephalides felis, ip
Method: Systemic Treatment In-Vivo Test with American Dog Tick Nymph and Cat Flea on Rats
Type of study and overall study design: The method is a randomized non-blinded efficacy study in accordance with European animal welfare requirements. Rats (Rattus norvegicus) were randomized based on pre-treatment flea counts. The efficacy of treatment was determined by comparison of the flea and tick counts of different treatment groups versus the placebo-treated control group. The experimental unit was the individual study animal. Method and route of administration: The compound was applied in a suitable solvent and carrier (more specifically, added to glycerol formal; in case of poorly soluble compounds, a solvent mixture with up to 25% by volume of N-methyl pyrrolidone may be used.) considering the individual body weight as an intraperitoneal injection.
Experimental infestation: On the day of treatment and weekly thereafter, 30 ticks (D. variabilis nymphs) were released onto the back of each rat, and 30 fleas (C. felis) were released onto the back of each rat 24 h later.
Tick and Flea counting: Rats were thoroughly examined and ticks and fleas were manually removed 48 h (±4 h) after tick infestation and 24 h after flea infestation. Live fleas and live attached engorged ticks were counted. In non-evident cases, engorgement status was evaluated by squeezing the tick on a filter paper to find traces of blood as sign for engorgement.

[6] = system: Ctenocephalides felis; assay: In vitro contact test with fleas; details: read-out: insecticidal activity; for pest or weed control at 0.2 µg/cm2, 0.2 µg/cm2: dose 0.2 μg/cm^2, dead or moribund fleas after 48 h; for pest or weed control at 1 µg/cm2, 1 µg/cm2: dose 1 μg/cm^2, dead or moribund fleas after 48 h
In short: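 Activity is the percentage of fleas dead or moribund at 48 h, judged by immobility or uncoordinated movement after tapping. Tubes were coated by evaporating acetone solutions (900 ppm gives 5 μg/cm^2), then held 5-10 adult fleas of both sexes at room temperature and ambient humidity.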

[7] = system: Amblyomma americanum; assay: In vitro contact test with hard ticks (Amblyomma americanum nymphs); details: read-out: acaricidal activity; for pest or weed control at 1 µg/cm2, 1 µg/cm2: dose 1 μg/cm^2, 48 h; for pest or weed control at 0.2 µg/cm2, 0.2 µg/cm2: dose 0.2 μg/cm^2, 48 h
In short: (§1)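 Acaricidal activity = % ticks dead or moribund after 48 h contact with acetone-deposited compound on vial walls (e.g., 900 ppm solution → 5 μg/cm^2). Ambient conditions for R. sanguineus, 21° C./85% rel. hum. for other species; heat challenge at 45-50° C. separated climbers from moribund ticks.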

[8] = system: Dermacentor variabilis; assay: In vitro contact test with adult hard ticks (Dermacentor variabilis); details: read-out: acaricidal activity; for pest or weed control at 0.2 µg/cm2, 0.2 µg/cm2: dose 0.2 μg/cm^2, 48 h; for pest or weed control at 1 µg/cm2, 1 µg/cm2: dose 1 μg/cm^2, 48 h
In short: as §1

[9] = system: Ixodes ricinus; assay: In vitro contact test with adult hard ticks (Ixodes ricinus); details: read-out: acaricidal activity; for pest or weed control at 0.2 µg/cm2, 0.2 µg/cm2: dose 0.2 μg/cm^2, 48 h; for pest or weed control at 1 µg/cm2, 1 µg/cm2: dose 1 μg/cm^2, 48 h; for pest or weed control at 5 µg/cm2, 5 µg/cm2: dose 5 μg/cm^2, 48 h
Method: In Vitro Contact Tests with Adult Hard Ticks
In vitro contact tests with ticks were conducted with adult males and females of Rhipicephalus sanguineus, Ixodes ricinus, or Dermacentor variabilis, or nymphs of Amblyomma americanum.
For the coating of the test vials, the test substance was dissolved and diluted in acetone p.a. to the desired concentration. The solution was then homogeneously applied to the inner wall and base of a glass vial by turning and rocking on an orbital shaker until complete evaporation of the solvent. For example, with a 900 ppm solution of test substance, an area-based dose of 5 μg/cm^2 was achieved.
After the solvent was completely evaporated, 5-10 adult ticks were put in each coated test vial, which was then sealed with a perforated plastic lid and incubated in a horizontal position in the dark at room temperature and ambient humidity (Rhipicephalus sanguineus) or in a climate-controlled cabinet (Ixodes ricinus, Dermacentor variabilis, Amblyomma americanum [21° C., 85% rel. hum.]). Acaricidal activity against the respective tick species was determined after 48 h. For this, ticks were collected to the base of the test vial by gentle knocking, and test vials were then incubated on a hotplate at 45-50° C. for no longer than 5 min. Ticks which remained motionless on the base of the test vial or moved uncoordinated without deliberately climbing up to avoid the heat were considered dead or moribund, respectively.
A substance was judged to have good acaricidal activity against the respective tick species when at least 80% of ticks were found dead or moribund at a dose of the substance of g/cm^2. An acaricidal activity of 100% means all ticks were dead or moribund. An acaricidal activity of 0% means none of the ticks was found dead or moribund.

[10] = system: Rhipicephalus sanguineus; assay: In vitro contact test with adult hard ticks (Rhipicephalus sanguineus); details: read-out: acaricidal activity; for pest or weed control at 0.2 µg/cm2, 0.2 µg/cm2: dose 0.2 μg/cm^2, 48 h; for pest or weed control at 1 µg/cm2, 1 µg/cm2: dose 1 μg/cm^2, 48 h
In short: as §1

O=C(Nc1cccc(C(=O)Nc2c(I)cc(C(F)(C(F)(F)F)C(F)(F)F)cc2C(F)(F)F)c1F)c1ccc(C(F)(F)F)nc1C(F)(F)F [Compound 112]
pest or weed control at 0.0008 mg [1]: 100%
pest or weed control at 0.16 ppm [2]: 95%
pest or weed control at 0.8 ppm [2]: 95%
pest or weed control at 4 ppm [2]: 95%
pest or weed control at 100 ppm [3]: ≥ 70%
pest or weed control at 100 ppm [4]: ≥ 70%

CN(C(=O)c1ccc(S(N)(=O)=O)cc1)c1cccc(C(=O)Nc2c(I)cc(C(F)(C(F)(F)F)C(F)(F)F)cc2C(F)(F)F)c1F [Compound 45]
pest or weed control at 0.00016 mg [1]: 100%
pest or weed control at 0.0008 mg [1]: 100%
pest or weed control at 0.16 ppm [2]: 95%
pest or weed control at 0.8 ppm [2]: 95%
pest or weed control at 4 ppm [2]: 95%
pest or weed control at 100 ppm [3]: ≥ 70%
pest or weed control at 100 ppm [4]: ≥ 70%

CCN(C(=O)c1ccc(F)cc1)c1cccc(C(=O)Nc2c(I)cc(C(F)(C(F)(F)F)C(F)(F)F)cc2C(F)(F)F)c1F [Compound 43]
inhibition in vivo at 5 mg/kg ([5]; SD 2, read-out: Geometric mean percent reduction in live flea (Ctenocephalides felis) counts compared to untreated control rats): 100%
inhibition in vivo at 5 mg/kg ([5]; SD 9, read-out: Geometric mean percent reduction in live flea (Ctenocephalides felis) counts compared to untreated control rats): 99%
inhibition in vivo at 5 mg/kg ([5]; SD 16, read-out: Geometric mean percent reduction in live flea (Ctenocephalides felis) counts compared to untreated control rats): 90%
inhibition in vivo at 5 mg/kg ([5]; SD 23, read-out: Geometric mean percent reduction in live flea (Ctenocephalides felis) counts compared to untreated control rats): 91%
inhibition in vivo at 5 mg/kg ([5]; SD 30, read-out: Geometric mean percent reduction in live flea (Ctenocephalides felis) counts compared to untreated control rats): 13%

Cc1cc(C2=NOC(c3cc(Cl)cc(Cl)c3)(C(F)(F)F)C2)ccc1C(=O)NCC(=O)NCC(F)(F)F (stereo not shown) [Fluralaner, fluralaner, reference compound]
Geometric mean percent reduction in live flea (Ctenocephalides felis) counts compared to untreated control rats ([5]; SD 2): 100%
Geometric mean percent reduction in live flea (Ctenocephalides felis) counts compared to untreated control rats ([5]; SD 9): 100%
Geometric mean percent reduction in live flea (Ctenocephalides felis) counts compared to untreated control rats ([5]; SD 16): 51%
Geometric mean percent reduction in live flea (Ctenocephalides felis) counts compared to untreated control rats ([5]; SD 23): 7%

N#Cc1ccc(C(=O)Nc2cccc(C(=O)Nc3c(Br)cc(C(F)(C(F)(F)F)C(F)(F)F)cc3OC(F)(F)F)c2)cc1 [Compound 9]
pest or weed control at 0.2 µg/cm2, 0.2 µg/cm2 [6]: 95%
pest or weed control at 1 µg/cm2, 1 µg/cm2 [6]: 95%
pest or weed control at 1 µg/cm2, 1 µg/cm2 [7]: 90%
pest or weed control at 0.2 µg/cm2, 0.2 µg/cm2 [8]: 90%
pest or weed control at 1 µg/cm2, 1 µg/cm2 [8]: 90%
pest or weed control at 0.2 µg/cm2, 0.2 µg/cm2 [9]: 90%
pest or weed control at 1 µg/cm2, 1 µg/cm2 [9]: 90%
pest or weed control at 5 µg/cm2, 5 µg/cm2 [9]: 90%
pest or weed control at 0.2 µg/cm2, 0.2 µg/cm2 [10]: 90%
pest or weed control at 0.00016 mg [1]: 100%
pest or weed control at 0.0008 mg [1]: 100%
pest or weed control at 0.8 ppm [2]: 95%
pest or weed control at 4 ppm [2]: 95%

COc1ccc(C(=O)N(C)c2cccc(C(=O)Nc3c(I)cc(C(F)(C(F)(F)F)C(F)(F)F)cc3C(F)(F)F)c2F)cc1OC [Compound 50]
pest or weed control at 4 ppm [2]: 95%
pest or weed control at 100 ppm [3]: ≥ 70%
pest or weed control at 100 ppm [4]: ≥ 70%

O=C(Nc1cccc(C(=O)Nc2c(I)cc(C(F)(C(F)(F)F)C(F)(F)C(F)(F)F)cc2C(F)(F)F)c1F)c1ccc(F)cc1 (stereo not shown) [Compound 35]
pest or weed control at 0.2 µg/cm2, 0.2 µg/cm2 [6]: 95%
pest or weed control at 1 µg/cm2, 1 µg/cm2 [6]: 95%
pest or weed control at 0.04 µg/cm2, 0.04 µg/cm2 ([7]; dose 0.04 μg/cm^2, 48 h): 90%
pest or weed control at 0.2 µg/cm2, 0.2 µg/cm2 [7]: 90%
pest or weed control at 1 µg/cm2, 1 µg/cm2 [7]: 90%
pest or weed control at 0.2 µg/cm2, 0.2 µg/cm2 [8]: 90%
pest or weed control at 1 µg/cm2, 1 µg/cm2 [8]: 90%
pest or weed control at 0.2 µg/cm2, 0.2 µg/cm2 [9]: 90%
pest or weed control at 1 µg/cm2, 1 µg/cm2 [9]: 90%
pest or weed control at 5 µg/cm2, 5 µg/cm2 [9]: 90%
pest or weed control at 0.04 µg/cm2, 0.04 µg/cm2 ([10]; dose 0.04 μg/cm^2, 48 h): 90%
pest or weed control at 0.2 µg/cm2, 0.2 µg/cm2 [10]: 90%
pest or weed control at 1 µg/cm2, 1 µg/cm2 [10]: 90%
pest or weed control at 6.4 ng [1]: 100%
pest or weed control at 32 ng [1]: 100%
pest or weed control at 0.00016 mg [1]: 100%
pest or weed control at 0.0008 mg [1]: 100%
pest or weed control at 0.032 ppm [2]: 95%
pest or weed control at 0.16 ppm [2]: 95%
pest or weed control at 0.8 ppm [2]: 95%
pest or weed control at 4 ppm [2]: 95%

N#Cc1ccc(C(=O)Nc2cccc(C(=O)Nc3c(I)cc(C(F)(C(F)(F)F)C(F)(F)C(F)(F)F)cc3C(F)(F)F)c2F)cc1 (stereo not shown) [Compound 34]
pest or weed control at 0.2 µg/cm2, 0.2 µg/cm2 [6]: 95%
pest or weed control at 1 µg/cm2, 1 µg/cm2 [6]: 95%
pest or weed control at 0.2 µg/cm2, 0.2 µg/cm2 [7]: 90%
pest or weed control at 1 µg/cm2, 1 µg/cm2 [7]: 90%
pest or weed control at 0.04 µg/cm2, 0.04 µg/cm2 ([8]; dose 0.04 μg/cm^2, 48 h): 90%
pest or weed control at 0.2 µg/cm2, 0.2 µg/cm2 [8]: 90%
pest or weed control at 1 µg/cm2, 1 µg/cm2 [8]: 90%
pest or weed control at 1 µg/cm2, 1 µg/cm2 [9]: 90%
pest or weed control at 5 µg/cm2, 5 µg/cm2 [9]: 90%
pest or weed control at 0.2 µg/cm2, 0.2 µg/cm2 [10]: 90%
pest or weed control at 1 µg/cm2, 1 µg/cm2 [10]: 90%
pest or weed control at 6.4 ng [1]: 100%
pest or weed control at 32 ng [1]: 100%
pest or weed control at 0.00016 mg [1]: 100%
pest or weed control at 0.0008 mg [1]: 100%
pest or weed control at 0.0064 ppm ([2]; dose 0.0064 ppm in citrated cattle blood): 95%
pest or weed control at 0.032 ppm [2]: 95%
pest or weed control at 0.16 ppm [2]: 95%
pest or weed control at 0.8 ppm [2]: 95%
pest or weed control at 4 ppm [2]: 95%
